Laboratory results from patent US20260174739A1 (priority 2022, published 2026).
Read-outs that look alike come from different tables or passages of the source.

Legend:
male C57 mice = assay: Forced swim test; type: in vivo; settings: intraperitoneal injection, test 0.5 h after dosing, motionless time in last 4 min
Procedure: Drug: the compound of the present disclosure was first uniformly mixed with 5% DMSO and 5% Solutol® HS 15. hysiological saline was then added to make up 90% of the final volume. The mixture was prepared at an appropriate concentration immediately before use.
Animal: male C57 mice, about 22 g. The animals were randomly divided into a blank control group and test drug groups, 8 animals per group, and mice in each group were administered either the vehicle or the test compound via intraperitoneal injection.
Experimental steps: the mice were subjected to forced swim test 0.5 h after dosing. The water level in the forced swim device was 45 cm, and the water temperature was 25° C. The mice were placed in an experimental room to adapt to the environment for 1 h before the experiment began. When the experiment began, the mice were placed in the device for 6 min, and the whole process was recorded by a camera. Only the motionless time of the mice in the last 4 min was counted when data were analyzed.

[1] = In vivo metabolism (pharmacokinetic) experiment in mice; parameters: species or system male ICR mice; settings: mouse, male ICR mice; for bioavailability: oral 10 mg/kg vs iv 2.5 mg/kg, read-out: F (%); for AUC(0-inf) / Cmax / half-life: oral 10 mg/kg, plasma; for AUC(0-inf): read-out: AUC0-inf(po); for Cmax: read-out: Cmax (po); for half-life: read-out: T1/2 (po) (converted)
Procedure: Animal: male ICR mice. The animals were randomly assigned to treatment groups and fasted for 12 h prior to dosing.
Drug: the compound of the present disclosure was dissolved in a vehicle (5% DMSO+5% Solutol HS15+90% saline). For intravenous (iv) administration, the dose was 2.5 mg/kg with a dosing volume of 5 mL/kg; for oral (po) administration, the dose was 10 mg/kg with a dosing volume of 10 mL/kg body weight. Sample collection and bioanalysis: blood was collected from the orbit of the mice and added into EP tubes containing heparin sodium at 0.083, 0.25, 0.5, 1, 2, 4, 6, and 8 h (n=3 for each time point). Immediately after blood collection, the mice were euthanized by cervical dislocation, and mouse brains were collected at the corresponding time points. All samples were promptly collected, snap-frozen, and stored at −70° C. for later use. Plasma samples were obtained by centrifugation of whole blood. 10 μL of plasma was mixed with 190 μL of internal standard solution (20 ng/ml in acetonitrile containing 0.1% formic acid). After mixing, the samples were centrifuged at 13000 rpm for 10 min, and 120 μL of the supernatant was separately collected. Depending on the sensitivity of the compound, 0.5-10 μL of the supernatant was taken for drug analysis using the appropriate liquid chromatography-tandem mass spectrometry (LC-MS/MS). Each analyte was calibrated and identified using standards. According to brain tissue: the extract (50% acetonitrile/water) at a ratio of 1 g:8 mL was homogenized for 2 min using five 3 mm magnetic beads in an OMNI Bead Ruptor 24 Elite homogenizer at 3.2 m/s and centrifuged at 4° C. and 3000 g for 3 min. 50 μL of the supernatant was mixed with 200 μL of internal standard solution (20 ng/mL in 80% acetonitrile/water). After mixing, the samples were centrifuged at 13,000 rpm for 10 min, and 120 μL of the supernatant was separately collected. Depending on the sensitivity of the compound, 0.5-10 μL of the supernatant was taken for drug analysis using the appropriate LC-MS/MS method. Each analyte was calibrated and identified using standards.
Data analysis: drug concentrations below the lower limit of quantification (LLOQ) were considered zero. Pharmacokinetic parameters were analyzed using PK Solver with a non-compartmental, bolus injection or extravascular input analysis models. Data points below the LLOQ were excluded to improve the efficacy of t1/2 calculation.

[2] = Human liver microsome assay (metabolic stability); type: in vitro ADME; settings: for half-life at 1 μM / CLint scaled at 1 μM: pH 7.4
Procedure: Control and reagent: NADPH, magnesium chloride, testosterone, phosphate buffer, etc. were supplied by Dalian Meilun Biotech Co., Ltd., etc.
Liver microsome: human liver microsomes were supplied by Corning.
Experimental step: the liver microsome incubations were performed in 96-well plates, each incubation system having a volume of 200 μL, in a medium of 0.1 M phosphate buffer (pH 7.4), including liver microsomes at a final concentration of 0.2 mg/mL, 1 μM of the test drug, 3.0 mM MgCl2, 0.01% DMSO, 0.5% acetonitrile, and 2.0 mM NADPH. The incubation system described above without NADPH was pre-incubated at 37° C. for 5 min using a rotary water bath constant temperature oscillator. NADPH was added to initiate the reaction. At 0, 5, 15, 30, and 60 min, 20 μL of the sample was taken out from the incubation system after mixing well and added to 200 μL of acetonitrile containing an internal standard to terminate the reaction. Under the same conditions, 1 μM testosterone was used as a positive control to assess the reliability of the reaction system. For the negative control, phosphate buffer was used instead of NADPH, and all other incubation conditions remained the same. At 60 min, 20 μL of the sample was taken out after mixing well and added to 200 μL of termination solution containing an internal standard to terminate the reaction.
Sample analysis: After treatments such as precipitated protein extraction with an organic solvent, the incubated sample was analyzed using liquid chromatography-tandem mass spectrometry (LC-MS/MS). The concentrations of the test drug or the positive control drug in the sample were semi-quantified. The concentration in the sample was expressed using the ratio of the analyte peak area to the internal standard peak area.
Data processing and analysis: A standard curve of the In residual rate of the drug in the incubation system with respect to the incubation time was plotted by using Excel software, linear regression was performed to obtain a slope k, and the half-life T1/2 (min) and the intrinsic clearance CLint (mL/min/kg) were calculated according to the following formula: […]

human DAT = human DAT (Homo sapiens, UniProt Q01959); assay: DAT transporter inhibitory activity test (neurotransmitter transporter uptake assay kit); type: cell-based
Procedure: Transporter inhibition of human DAT and NET expressed in HEK-293 cells was assessed using a neurotransmitter transporter uptake assay kit. The assay was performed as described in the kit instructions, using centanafadine as a positive control. The specific procedures were as follows:
DAT stably transfected culture: The DAT-HEK cell line was cultured in DMEM medium containing 10% fetal bovine serum and 0.2 mg/mL hygromycin B at 37° C. with 5% carbon dioxide.
DAT stably transfected cell passage: the old medium was removed, and the cells were washed once with PBS; 1 mL of TrypLE™ Express solution was then added, and the cells were incubated at 37° C. for about 2 min. When the cells were detached from the bottom of the dish, about 5 mL of complete medium pre-heated at 37° C. was added. The cell suspension was gently pipetted to separate the aggregated cells. The cell suspension was transferred to a sterile centrifuge tube and centrifuged at 1000 rpm for 5 min. In order to maintain the physiological activity of the cells, the experimental cell confluence was controlled at about 80%.
• a) After overnight transfection of NET cells, the cells were digested with trypsin, resuspended with DMEM+10% Dialyzed FBS medium, seeded into a 384-well plate at 20000 cells/well, and incubated overnight. […] After centrifuging, the plate was incubated at 37° C. for 30 min. • e) A detection reagent was prepared using 1×HBSS, and 16 μL of the detection reagent was added to each well. […] Curve fitting and IC50 calculation were performed using GraphPad Prism software nonlinear regression method.

human SERT = human SERT (Homo sapiens, UniProt P31645); assay: Inhibitory activity assay against 5-HT transporter (neurotransmitter transporter uptake assay kit); type: cell-based; settings: HEK-293 cells overexpressing human SERT; read-out: 5-HTT (IC50)
Procedure: In HEK-293 cells overexpressing human SERT, the transporter inhibitory effect of the test compound on human SERT was assayed using a Neurotransmitter transporter uptake assay kit (Molecular devices).

[3] = human liver microsomes 0.2 mg/mL, 1 μM test drug, NADPH, 37° C., read-out: Half-life (t1/2, min)
[4] = human liver microsomes 0.2 mg/mL, 1 μM test drug, NADPH, 37° C., read-out: Intrinsic clearance (Clint, mL/min/kg)

Chain of human DAT (Q01959 whole entry): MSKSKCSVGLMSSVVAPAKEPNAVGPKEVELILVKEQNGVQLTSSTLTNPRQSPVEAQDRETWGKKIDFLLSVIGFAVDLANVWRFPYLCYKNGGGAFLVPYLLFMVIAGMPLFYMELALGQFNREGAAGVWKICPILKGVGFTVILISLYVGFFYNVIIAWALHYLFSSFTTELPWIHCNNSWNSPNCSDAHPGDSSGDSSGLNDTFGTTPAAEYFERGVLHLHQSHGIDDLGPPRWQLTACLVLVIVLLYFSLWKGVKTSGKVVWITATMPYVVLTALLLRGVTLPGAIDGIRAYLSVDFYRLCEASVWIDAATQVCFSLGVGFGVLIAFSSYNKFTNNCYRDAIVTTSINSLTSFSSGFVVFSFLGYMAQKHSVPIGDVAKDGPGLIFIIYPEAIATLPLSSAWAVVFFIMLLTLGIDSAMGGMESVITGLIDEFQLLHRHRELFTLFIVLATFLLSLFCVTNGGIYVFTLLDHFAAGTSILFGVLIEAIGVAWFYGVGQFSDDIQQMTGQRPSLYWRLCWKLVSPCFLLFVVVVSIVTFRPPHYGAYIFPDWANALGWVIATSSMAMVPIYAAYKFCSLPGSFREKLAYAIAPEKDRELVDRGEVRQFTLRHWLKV
Chain of human SERT (P31645 whole entry): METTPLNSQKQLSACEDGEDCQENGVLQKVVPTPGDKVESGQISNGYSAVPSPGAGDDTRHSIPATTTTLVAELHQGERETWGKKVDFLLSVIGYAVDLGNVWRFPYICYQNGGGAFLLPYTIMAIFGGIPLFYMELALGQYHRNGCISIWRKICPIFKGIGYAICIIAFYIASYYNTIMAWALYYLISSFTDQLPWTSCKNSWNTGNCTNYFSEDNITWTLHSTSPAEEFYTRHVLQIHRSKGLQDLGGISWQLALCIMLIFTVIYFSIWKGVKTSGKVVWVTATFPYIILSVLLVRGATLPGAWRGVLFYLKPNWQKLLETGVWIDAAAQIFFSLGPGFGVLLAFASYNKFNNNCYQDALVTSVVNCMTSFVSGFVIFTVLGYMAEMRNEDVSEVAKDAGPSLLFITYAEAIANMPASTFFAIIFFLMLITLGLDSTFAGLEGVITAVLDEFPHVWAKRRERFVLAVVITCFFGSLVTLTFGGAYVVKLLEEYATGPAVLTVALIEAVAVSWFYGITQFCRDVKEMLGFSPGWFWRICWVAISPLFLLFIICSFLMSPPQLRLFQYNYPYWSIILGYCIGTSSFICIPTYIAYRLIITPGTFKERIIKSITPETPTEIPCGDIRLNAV

NC1(c2ccccc2)CCCc2sccc21 (racemic) [rac-A16, 4-phenyl-4,5,6,7-tetrahydrobenzothiophen-4-amine]
Effective dose (male C57 mice): 3 mg/kg
bioavailability [1]: 41%
AUC(0-inf) [1]: 0.501 µg·h/mL
Cmax [1]: 0.252 µg/mL
half-life [1]: 1.76 h
half-life at 1 μM [2, 3]: 42 min
CLint scaled at 1 μM [2, 4]: 95.5 mL/min/kg

c1ccc(C2(N3CCCC3)CCc3oncc3C2)cc1 (racemic) [rac-A55, 5-phenyl-5-(pyrrolidin-1-yl)-4,5,6,7-tetrahydrobenzo[d]isoxazole]
IC50 (human DAT; DAT stably transfected HEK cells, read-out: DAT (IC50)): 4.5 µM
IC50 (human SERT): 7.2 µM
half-life at 1 μM [2, 3]: 62 min
CLint scaled at 1 μM [2, 4]: 65.8 mL/min/kg

Nc1nc2c(s1)CCCC2(N)c1ccccc1 (racemic) [rac-A35, 4-phenyl-4,5,6,7-tetrahydrobenzothiazole-2,4-diamine]
Effective dose (male C57 mice): 3 mg/kg
AUC(0-inf) ([1]; male, ICR, po, 10 mg/kg): 5.11 µg·h/mL
Cmax ([1]; male, ICR, po, 10 mg/kg): 1.14 µg/mL
half-life ([1]; male, ICR, po, 10 mg/kg): 2.66 h

Nc1nc2c(s1)CC(N)(c1cccc(OCC3CC3)c1)CC2 (racemic) [rac-A259, 6-(3-(cyclopropylmethoxy)phenyl)-4,5,6,7-tetrahydrobenzo[d]thiazole-2,6-diamine]
Effective dose (male C57 mice): 5 mg/kg

CCOc1cccc(C2(N)CCc3nc(N)sc3C2)c1 (racemic) [rac-A228, 6-(3-ethoxyphenyl)-4,5,6,7-tetrahydrobenzo[d]thiazole-2,6-diamine]
Effective dose (male C57 mice): 5 mg/kg

Nc1nc2c(s1)CC(N)(c1ccccc1F)CC2 (racemic) [rac-A9, 6-(2-fluorophenyl)-4,5,6,7-tetrahydrobenzothiazole-2,6-diamine]
Effective dose (male C57 mice): 1 mg/kg
IC50 (human SERT): 0.8 µM

c1ccc(C2(N3CCCCC3)CCc3[nH]ncc3C2)cc1 (racemic) [rac-A70, 5-phenyl-5-(piperidin-1-yl)-4,5,6,7-tetrahydro-1H-indazole]
Effective dose (male C57 mice): 1 mg/kg
half-life at 1 μM [2, 3]: > 120 min

CNC1(c2cccc(OC(F)F)c2)CCc2nc(N)sc2C1 (racemic) [rac-A282, 6-(3-(difluoromethoxy)phenyl)-N6-methyl-4,5,6,7-tetrahydrobenzo[d]thiazole-2,6-diamine]
Effective dose (male C57 mice): 5 mg/kg

c1ccc(C2(N3CCCC3)CCc3[nH]ncc3C2)cc1 (racemic) [rac-A12, 5-phenyl-5-(pyrrolidin-1-yl)-4,5,6,7-tetrahydro-1H-indazole]
Effective dose (male C57 mice): 1 mg/kg
CLint scaled at 1 μM ([2]; human, microsomes): 12.4 mL/min/kg
half-life at 1 μM ([2]; human, microsomes): 327 min

CCCNC1(c2ccccc2)CCc2nc(N)sc2C1 (racemic) [rac-A7, 6-phenyl-N^6-propyl-4,5,6,7-tetrahydrobenzothiazole-2,6-diamine]
IC50 (human DAT): 4.5 µM
bioavailability ([1]; male, ICR, po, 10 mg/kg): 55%
AUC(0-inf) ([1]; male, ICR, po, 10 mg/kg): 0.768 µg·h/mL
Cmax ([1]; male, ICR, po, 10 mg/kg): 0.208 µg/mL
half-life ([1]; male, ICR, po, 10 mg/kg): 1.72 h
half-life at 1 μM [2, 3]: > 120 min

Nc1nc2c(s1)CC(N)(c1cccc(OC(F)F)c1)CC2 (racemic) [rac-A256, 6-(3-(difluoromethoxy)phenyl)-4,5,6,7-tetrahydrobenzo[d]thiazole-2,6-diamine]
Effective dose (male C57 mice): 5 mg/kg

Nc1nc2c(s1)CC(N)(c1ccccc1)CC2 (racemic) [rac-A1, 6-phenyl-4,5,6,7-tetrahydrobenzothiazole-2,6-diamine]
Effective dose (male C57 mice): 1 mg/kg
bioavailability ([1]; male, ICR, po, 10 mg/kg): 132%
AUC(0-inf) ([1]; male, ICR, po, 10 mg/kg): 2.83 µg·h/mL
Cmax ([1]; male, ICR, po, 10 mg/kg): 0.413 µg/mL
half-life ([1]; male, ICR, po, 10 mg/kg): 4.68 h

C[C@]12CC[C@H]3[C@@H](CCC4=CC(=O)CC[C@@]43C)[C@@H]1CC[C@@H]2O [Testosterone, testosterone, reference compound]
Half-life (t1/2, min) ([2]; human liver microsomes 0.2 mg/mL, 1 μM test drug, NADPH, 37° C.): 15.3 min
CLint scaled at 1 μM [2, 4]: 265 mL/min/kg

NC1(c2ccccc2)CCc2ncsc2C1 (racemic) [rac-A14, 6-phenyl-4,5,6,7-tetrahydrobenzothiazol-6-amine]
Effective dose (male C57 mice): 3 mg/kg
bioavailability ([1]; male, ICR, po, 10 mg/kg): 105%
AUC(0-inf) ([1]; male, ICR, po, 10 mg/kg): 2.9 µg·h/mL
Cmax ([1]; male, ICR, po, 10 mg/kg): 1.43 µg/mL
half-life ([1]; male, ICR, po, 10 mg/kg): 1.5 h
half-life at 1 μM [2, 3]: > 120 min

Nc1nc2c(s1)CC(N)(c1cccc(OCC(F)(F)F)c1)CC2 (racemic) [rac-A255, 6-(3-(2,2,2-trifluoroethoxy)phenyl)-4,5,6,7-tetrahydrobenzo[d]thiazole-2,6-diamine]
Effective dose (male C57 mice): 5 mg/kg

Nc1nc2c(s1)CCC(N)(c1ccccc1)C2 (racemic) [rac-A132, 5-phenyl-4,5,6,7-tetrahydrobenzo[d]thiazole-2,5-diamine]
Effective dose (male C57 mice): 3 mg/kg
